From patent US8993585B2, “Cyclic amine substituted pyrimidinediamines as PKC inhibitors” (Rigel Pharmaceuticals, Inc., priority 2007, dated 2015)
pIC50: −log10 of the molar value.

System: Human primary T cells
Assay: IL-2 ELISA, Human Primary T Cell, Anti-CD3+CD28+ (Example 3)
Format: cell-based
Conditions: anti-CD3+CD28 stimulation
Experimental: Human primary T cell isolation and culture: Human primary T cells were prepared as follows. […] The cells at the serum:ficoll interface were recovered and washed twice with 5 volumes of PBS. […] The primary T-cells were then washed twice with PBS to remove the IL-2.
Primary T cell stimulation and IL2 ELISA: Human primary T cells (100,000 cells per well) were pre-incubated with or without test compound in Yssel's medium for 1 hr at 37° C. Cells were then stimulated by transferring them to round-bottom 96-well plates pre-coated with 1 ug/ml αCD3 and 5 μg/ml αCD28. For counter assay, cells were instead stimulated by adding 8× stock solutions of PMA and ionomycin in Yssels (for final concentrations of 0.5 ng/ml PMA and 0.1 uM ionomycin, both from Calbiochem).

Molecule | pIC50 (24 hours) | pIC50 (Homo sapiens, T-cell, 24 h)
COc1ccc(Nc2ncc(Br)c(NC3CC(C)(C)N(C)C(C)(C)C3)n2)cc1OC [Compound I-274] | 5.92 | 
COc1cc(O)cc(Nc2ncc(F)c(NC3CC(C)(C)N(C)C(C)(C)C3)n2)c1 [Compound I-436] |  | 6.22
COc1cc(Nc2ncc(F)c(NC3CC(C)(C)N(C)C(C)(C)C3)n2)ccc1-n1nnnc1C [Compound I-407] | 5.57 | 
CN1C(C)(C)CC(Nc2nc(Nc3ccc4c(c3)OC(C)(C)C(=O)N4CCCF)ncc2C#N)CC1(C)C [II-81] |  | 6.25
CN1C(C)(C)CC(Nc2nc(Nc3cnc(N4CCOCC4)c(C(F)(F)F)c3)ncc2F)CC1(C)C [Compound I-271] | 6.17 | 
CN1C(=O)C(C)(C)Oc2cc(Nc3ncc(F)c(NC4CC(C)(C)N(C)C(C)(C)C4)n3)cnc21 [II-54] |  | 6.43
CCOC(=O)c1cnc(Nc2ccc(N3CCN(S(C)(=O)=O)CC3)c(C(F)(F)F)c2)nc1NC1CC(C)(C)N(C)C(C)(C)C1 [Compound I-83] | 5.11 | 
CN1C(C)(C)CC(Nc2nc(Nc3cccc(O)c3)ncc2F)CC1(C)C [Compound I-327] | 5.29 | 
CN1C(C)(C)CC(Nc2nc(Nc3nc4cc(Cl)ccc4o3)ncc2F)CC1(C)C [II-12] |  | 5.39
CCn1c(=O)oc2cc(Nc3ncc(F)c(NC4CC(C)(C)N(C)C(C)(C)C4)n3)ccc21 [II-46] |  | 6.41
CC1(C)CC(Nc2nc(Nc3ccc4c(c3)OC(C)(C)O4)ncc2F)CC(C)(C)N1 [II-102] |  | 5.28
CN1C(C)(C)CC(Nc2nc(Nc3ccc(F)c(-n4cnnn4)c3)ncc2F)CC1(C)C [Compound I-466] | 6.62 | 
COc1cc(Nc2ncc(F)c(NC3CC(C)(C)N(C)C(C)(C)C3)n2)ccc1NC(=O)c1ccco1 [Compound I-353] | 5.81 | 
COc1ccc(-c2csc(Nc3ncc(F)c(NC4CC(C)(C)N(C)C(C)(C)C4)n3)n2)cc1OC [II-138] |  | 6.15
CN1C(C)(C)CC(Nc2nc(Nc3ccc(OC(F)(F)F)c(-c4cnn(C)c4)c3)ncc2F)CC1(C)C [Compound I-210] | 5.91 | 
CN1C(C)(C)CC(Nc2nc(Nc3ccc(NC(=O)c4ccco4)c(Cl)c3)ncc2Cl)CC1(C)C [Compound I-351] | 6.70 | 
CN1C(C)(C)CC(Nc2nc(Nc3ccc(N4CCN(S(C)(=O)=O)CC4)c(C#N)c3)ncc2C(F)(F)F)CC1(C)C [Compound I-176] | 6.18 | 
COC(=O)N1CCN(c2ccc(Nc3ncc(F)c(NC4CC(C)(C)N(C)C(C)(C)C4)n3)cc2Cl)CC1 [Compound I-62] | 6.59 | 
CCOc1ccc(Nc2ncc(F)c(NC3CC(C)(C)N(C)C(C)(C)C3)n2)cc1-n1nnnc1CC [Compound I-409] | 7.30 | 
Cc1cnc(Nc2ccc(C#N)c(Cl)c2)nc1NC1CC(C)(C)N(C)C(C)(C)C1 [Compound I-28] | 6.34 | 
COc1cc(O)cc(Nc2ncc(F)c(NC3CC(C)(C)NC(C)(C)C3)n2)c1 [Compound I-453] |  | 5.98
CN1C(C)(C)CC(Nc2nc(Nc3ccc4c(c3)OC(F)(F)O4)ncc2F)CC1(C)C [II-37] |  | 5.86
CN1C(C)(C)CC(Nc2nc(Nc3ccc(-c4cc5ccccc5s4)c(C(F)(F)F)c3)ncc2F)CC1(C)C [Compound I-114] | 5.73 | 

Molecule | pIC50 (24 hours) | pIC50 (Homo sapiens, T-cell, 24 h)
COc1ccc(Nc2ncc(F)c(NC3CCN(CCO)CC3)n2)cc1Cl [III-5, N2-(3-Chloro-4-methoxy)phenyl-5-fluoro-N4-[1-(2-hydroxyethyl)piperidin-4-yl]-2,4-pyrimidinediamine] | 5.49 | 
Cc1cc(Nc2ncc(F)c(NC3CC(C)(C)N(C)C(C)(C)C3)n2)ccc1Br [Compound I-111] | 6.31 | 
CN1C(C)(C)CC(Nc2nc(Nc3ccc(-c4cnn(C)c4)c(F)c3)ncc2F)CC1(C)C [Compound I-150] | 6.15 | 
CN1C(C)(C)CC(Nc2nc(Nc3ccc(N4CCN(S(C)(=O)=O)CC4)c(C(F)(F)F)c3)ncc2C(N)=O)CC1(C)C [Compound I-90] | 5.54 | 
CN1C(C)(C)CC(Nc2nc(Nc3cc4c(cc3Cl)OCCO4)ncc2F)CC1(C)C [II-116] |  | 5.83
CN1C(C)(C)CC(Nc2nc(Nc3nc4ccc(S(C)(=O)=O)cc4s3)ncc2F)CC1(C)C [II-144] |  | 5.97
CN1C(C)(C)CC(Nc2nc(Nc3ccc(N4CCN(S(C)(=O)=O)CC4)c(Cl)c3)ncc2F)CC1(C)C [Compound I-61] | 7.03 | 
CC(=O)N1CCN(c2ccc(Nc3ncc(F)c(NC4CC(C)(C)N(C)C(C)(C)C4)n3)cc2Cl)CC1 [Compound I-67] | 6.46 | 
CN1C(C)(C)CC(Nc2nc(Nc3nc4ccccc4s3)ncc2F)CC1(C)C [II-16] |  | 5.79
CN1C(C)(C)CC(N(Cc2ccc(-c3ccccc3C#N)cc2)c2nc(Nc3ccc4c(c3)OCCO4)ncc2F)CC1(C)C [II-91] |  | 5.41
CC1(C)CC(Nc2nc(Nc3cc(Cl)cc(Cl)c3)ncc2F)CC(C)(C)N1CCN [Compound I-447] | 6.04 | 
CCCN1C(=O)COc2cc(Nc3ncc(F)c(NC4CC(C)(C)N(C)C(C)(C)C4)n3)ccc21 [II-59] |  | 6.83
CN1C(C)(C)CC(Nc2nc(Nc3nc(-c4ccc(Cl)cc4)cs3)ncc2F)CC1(C)C [II-15] |  | 6.08
COc1cc(Nc2nc(C)cc(NC3CC(C)(C)N(C)C(C)(C)C3)n2)cc(OC)c1 [IV-2] |  | 5.50
CN1C(C)(C)CC(Nc2ccnc(Nc3cccc(C#N)c3)n2)CC1(C)C [Compound I-227] |  | 6.09
CSc1nnnn1-c1cccc(Nc2ncc(C#N)c(NC3CC(C)(C)N(C)C(C)(C)C3)n2)c1 [Compound I-464] | 6.74 | 
Cc1ccc(Nc2ncc(F)c(NC3CCC(C)(C)N(C)C(C)(C)C3)n2)cc1C#N (centres unmarked) [Compound I-263, 5-Fluoro-N2-[4-(methyl)-3-cyano]phenyl-N4-(1,2,2,7,7-pentamethylazepan-4-yl)-2,4-pyrimidinediamine] | 4.96 | 
COc1ccc(Nc2ncc(F)c(NC3CC(C)(C)N(CCC(=O)O)C(C)(C)C3)n2)cc1Cl [Compound I-303] |  | 4.75
CC(C)n1c(=O)oc2cc(Nc3ncc(C#N)c(NC4CC(C)(C)NC(C)(C)C4)n3)ccc21 [II-162] |  | 5.95
CCOC(=O)c1cnc(Nc2ccc(N3CCN(C)CC3)c(Cl)c2)nc1NC1CC(C)(C)N(C)C(C)(C)C1 [Compound I-89] | 5.24 | 
CN1C(C)(C)CC(Nc2nc(Nc3ccc(F)c(Cl)c3)ncc2F)CC1(C)C [Compound I-333] | 6.23 | 
CN1C(C)(C)CC(Nc2nc(Nc3ccc(Oc4ncccn4)c(Cl)c3)ncc2F)CC1(C)C [Compound I-338] | 6.44 | 
CN1C(C)(C)CC(Nc2nc(Nc3ccc(-c4cnn(C)c4)cc3)ncc2F)CC1(C)C [Compound I-144] | 5.97 | 

Molecule | pIC50 (24 hours) | pIC50 (Homo sapiens, T-cell, 24 h)
COC(=O)N1CCN(c2cc(Nc3ncc(F)c(NC4CC(C)(C)N(C)C(C)(C)C4)n3)ccc2Cl)CC1 [Compound I-43] | 6.05 | 
CN1C(C)(C)CC(Nc2nc(Nc3ccc(F)c(-c4ccoc4)c3)ncc2F)CC1(C)C [Compound I-192] | 6.03 | 
CC(=O)N1CCN(c2cc(Nc3ncc(F)c(NC4CC(C)(C)N(C)C(C)(C)C4)n3)ccc2C(F)(F)F)CC1 [Compound I-212] | 6.35 | 
CCOC(=O)c1cnc(Nc2cccc(C#N)c2)nc1NC1CC(C)(C)N(C)C(C)(C)C1 [Compound I-81] | 4.54 | 
CN1CCN(c2ccc(Nc3ncc(Cl)c(NC4CC(C)(C)N(C)C(C)(C)C4)n3)cc2C(F)(F)F)CC1 [Compound I-37] | 6.29 | 
CN1C(C)(C)CC(Nc2nc(Nc3ccc4c(c3)OCCO4)ncc2Br)CC1(C)C [II-127] |  | 6.35
5-Fluoro-N2-(4-methyl-cyano)phenyl-N4-(1,2,2,5,5-pentamethylpyrrolidin-3-yl)-2,4-pyrimidinediamine [Compound I-278] | 5.89 | 
CN1C(C)(C)CC(Nc2nc(Nc3ccc(OCCN4CCOCC4)c(Cl)c3)ncc2C#N)CC1(C)C [Compound I-373] | 6.27 | 
CC(=O)N1C(C)(C)CC(Nc2nc(Nc3ccc(N4CCN(S(C)(=O)=O)CC4)c(C(F)(F)F)c3)ncc2F)CC1(C)C [Compound I-215] | 4.59 | 
COc1cc(Nc2ncc(F)c(NC3CC(C)(C)N(C)C(C)(C)C3)n2)cc(OC)c1OC [Compound I-19] | 5.91 | 
COc1ccc(Nc2ncc(F)c(NC3CC(C)(C)N(C)C(C)(C)C3)n2)cc1-c1cc2ccccc2s1 [Compound I-195] | 5.95 | 
CC(=O)N1CCN(c2ccc(Nc3ncc(F)c(NC4CC(C)(C)N(C)C(C)(C)C4)n3)cc2C(F)(F)F)CC1 [Compound I-49] | 6.55 | 
COc1ccc(Nc2ncc(F)c(NC3CC(C)(C)N(C)C(C)(C)C3)n2)cc1OC [Compound I-130] | 5.96 | 
C#Cc1cnc(Nc2cc(OC)cc(OC)c2)nc1NC1CC(C)(C)N(C)C(C)(C)C1 [Compound I-433] |  | 5.63
CN1C(C)(C)CC(Nc2nc(Nc3nnc(C(F)(F)F)s3)ncc2F)CC1(C)C [II-13] |  | 4.95
CCNC(=O)Nc1cccc(Nc2ncc(F)c(NC3CC(C)(C)N(C)C(C)(C)C3)n2)c1 [Compound I-138] | 5.50 | 
CN1C(C)(C)CC(Nc2nc(Nc3cccc(C#N)c3)ncc2[N+](=O)[O-])CC1(C)C [Compound I-72] | 6.00 | 
COC(=O)C(C)N1C(C)(C)CC(Nc2nc(Nc3ccc(C)c(C#N)c3)ncc2F)CC1(C)C (centres unmarked) [Compound I-296] |  | 5.98
Cc1csc(-c2ccc(Nc3ncc(F)c(NC4CC(C)(C)N(C)C(C)(C)C4)n3)cc2C(F)(F)F)c1 [Compound I-116] | 5.91 | 
COc1cccc2sc(Nc3ncc(F)c(NC4CC(C)(C)N(C)C(C)(C)C4)n3)nc12 [II-20] |  | 5.68
CN1C(C)(C)CC(Nc2nc(Nc3nc(-c4ccc5c(c4)OCCO5)cs3)ncc2F)CC1(C)C [II-132] |  | 6.08
COc1ccc(Nc2ncc(F)c(NC3CCC(C)(C)N(C)C(C)(C)C3)n2)cc1C(F)(F)F (centres unmarked) [Compound I-268, 5-Fluoro-N2-[4-methoxy-3-trifluoromethyl]phenyl-N4-(1,2,2,7,7-pentamethylazepan-4-yl)-2,4-pyrimidinediamine] | 4.50 | 
